Measurements published in patent US9745266B2 (THE REGENTS OF THE UNIVERSITY OF COLORADO, A BODY CORPORATE, priority 2013, dated 2017).
≈ marks a conversion by molar mass, not a printed value.

system: MRSA ATCC BAA-44; experiment: MIC in the presence of 20 μM Of1 / alkaloid; assay type: cell-based, S. aureus; details: MIC / MIC (+20 μM Of1), MRSA ATCC BAA-44
Method: Indoline alkaloid compounds were then screened for the ability to potentiate the activity of methicillin against MRSA. A multi-drug resistant MRSA strain (ATCC: BAA-44) was selected for the initial screening. […] To each well, 20 μM of each individual indoline alkaloid was added and the plates were incubated at 37° C. for 16 hrs.
The MRSA strain ATCC BAA-44 and the methicillin-sensitive S. aureus (MSSA) strain ATCC 25923 were used to determine the MIC values of various antimicrobial compounds in the presence of 20 μM Of1. The experiment was conducted similarly to the CLSI MIC determination described previously; however, MHB was supplemented with 40 μM Of1 prior to set up and inoculation. The final concentration of Of1 after inoculation with BAA-44 was 20 μM.

| Structure (SMILES) | fold of potentiation |
| --- | --- |
| Cc1nnc(SCC2=C(C(=O)O)N3C(=O)[C@@H](NC(=O)Cn4cnnn4)[C@H]3SC2)s1 [cefazolin] | 32 |
| CC1=C(C(=O)O)N2C(=O)[C@@H](NC(=O)[C@H](N)c3ccccc3)[C@H]2SC1 [cephalexin] | 16 |
| C[C@@H](O)[C@H]1C(=O)N2C(C(=O)O)=C(SCCN=CN)C[C@H]12 [imipenem] | 8 |

same assay, conditions: MRSA ATCC BAA-44; in the presence of 20 μM Of1

| MIC (+Of1) | Structure (SMILES) |
| --- | --- |
| 4 µg/mL | Cc1nnc(SCC2=C(C(=O)O)N3C(=O)[C@@H](NC(=O)Cn4cnnn4)[C@H]3SC2)s1 [cefazolin] |
| 16 µg/mL | CC1=C(C(=O)O)N2C(=O)[C@@H](NC(=O)[C@H](N)c3ccccc3)[C@H]2SC1 [cephalexin] |
| .0625 µg/mL | C[C@@H](O)[C@H]1C(=O)N2C(C(=O)O)=C(SCCN=CN)C[C@H]12 [imipenem] |

system: not listed separately; experiment: Mammalian cytotoxicity, CellTiter-Glo viability assay; assay type: cell-based, human; details: human, HeLa cells
Method: To evaluate the cytotoxicity of Of1 in mammalian cells, a cell viability assay was carried out using CellTiter-Glo luminescent cell viability assay kit (Promega). Human cervixcal adenocarcinoma HeLa cells were seeded on white, cell-culture treated 96-well plates (Corning: 3917) with Dulbecco's modified Eagle's medium (DMEM) supplemented with 10% fetal calf serum (FCS), 1% penicillin/streptomycin, at the densities of 20,000 cells/well. The medium volume for each well was 100 μL. Cells were incubated at 37° C. in 5% CO2/95% air for 16 hours. The medium was removed from each well and replaced with 99 μL of warmed fresh medium. To each well, 1 μL of Of1 analog was added in DMSO to final concentrations of 0.5-32 μg/mL. Each series was performed in triplicate. After incubation at 37° C. for another 24 hours, the plates were equilibrated to room temperature for 30 minutes. 100 μL of CellTiter-Glo reagent (Promega) was added to each well and mixed for 2 minutes on an orbital shaker. The plate was incubated at room temperature for another 10 minutes to stabilize luminescent signal. The luminescence of each sample was recorded in an Envision Multilabel Plate Reader (Perkin Elmer).

| Structure (SMILES) | GI50 at 24 h |
| --- | --- |
| C=C1CCC[C@@H]2Nc3c(F)cc(Br)cc3[C@]12CCNS(=O)(=O)c1ccc(OC(F)F)c(Cl)c1 (relative stereo) | 15.4 µg/mL (≈ 27.2 µM) |
| C=C1CCCC2Nc3ccc(Cl)cc3C12CCNS(=O)(=O)c1ccc(Cl)cc1 (stereo not drawn) [Cpd 6a, 4-Chloro-N-[2-(6-chloro-4-methylidene-2,3,4,4a,9,9a-hexahydro-1H-carbazol-4a-yl)ethyl]benzene-1-sulfonamide] | 35 µg/mL (≈ 80 µM) |
| C=C1CCCC2Nc3c(Cl)cc(Cl)cc3C12CCNS(=O)(=O)c1ccc(Cl)cc1 (stereo not drawn) [Cpd 6k, 4-Chloro-N-[2-(6,8-dichloro-4-methylidene-2,3,4,4a,9,9a-hexahydro-1H-carbazol-4a-yl)ethyl]benzene-1-sulfonamide] | 13.6 µg/mL (≈ 28.8 µM) |
| C=C1CCCC2Nc3c(F)cc(Br)cc3C12CCNS(=O)(=O)c1ccc(Cl)cc1 (stereo not drawn) [Cpd 6l, N-[2-(6-bromo-8-fluoro-4-methylidene-2,3,4,4a,9,9a-hexahydro-1H-carbazol-4a-yl)ethyl]-4-chlorobenzene-1-sulfonamide] | 18.1 µg/mL (≈ 36.2 µM) |
| C=C1CCCC2Nc3ccc(Br)cc3C12CCNS(=O)(=O)c1ccc(Br)cc1 (stereo not drawn) [Cpd 12g, 4-Bromo-N-[2-(6-bromo-4-methylidene-2,3,4,4a,9,9a-hexahydro-1H-carbazol-4a-yl)ethyl]benzene-1-sulfonamide] | 40 µg/mL (≈ 76 µM) |
| C=C1CCCC2Nc3ccc(Br)cc3C12CCNS(=O)(=O)c1ccc(I)cc1 (stereo not drawn) [Cpd 12h, N-[2-(6-bromo-4-methylidene-2,3,4,4a,9,9a-hexahydro-1H-carbazol-4a-yl)ethyl]-4-iodobenzene-1-sulfonamide] | 33 µg/mL (≈ 57.6 µM) |
| C=C1CCCC2Nc3ccc(Br)cc3C12CCNS(=O)(=O)c1ccc(Cl)c(Cl)c1 (stereo not drawn) [Cpd 12i, N-[2-(6-bromo-4-methylidene-2,3,4,4a,9,9a-hexahydro-1H-carbazol-4a-yl)ethyl]-3,4-dichlorobenzene-1-sulfonamide] | 12.8 µg/mL (≈ 24.8 µM) |
| C=C1CCCC2Nc3c(F)cc(Br)cc3C12CCNS(=O)(=O)c1ccc(OC)cc1 (stereo not drawn) [Cpd 13a, N-[2-(6-bromo-8-fluoro-4-methylidene-2,3,4,4a,9,9a-hexahydro-1H-carbazol-4a-yl)ethyl]-4-methoxybenzene-1-sulfonamide] | 49 µg/mL (≈ 98.9 µM) |
| C=C1CCCC2Nc3c(F)cc(Br)cc3C12CCNS(=O)(=O)c1ccc(C)cc1 (stereo not drawn) [Cpd 13b, N-[2-(6-bromo-8-fluoro-4-methylidene-2,3,4,4a,9,9a-hexahydro-1H-carbazol-4a-yl)ethyl]-4-methylbenzene-1-sulfonamide] | 22 µg/mL (≈ 45.9 µM) |
| C=C1CCCC2Nc3c(F)cc(Br)cc3C12CCNS(=O)(=O)c1ccc(F)cc1 (stereo not drawn) [Cpd 13c, N-[2-(6-bromo-8-fluoro-4-methylidene-2,3,4,4a,9,9a-hexahydro-1H-carbazol-4a-yl)ethyl]-4-fluorobenzene-1-sulfonamide] | 18.3 µg/mL (≈ 37.9 µM) |
| C=C1CCCC2Nc3c(F)cc(Br)cc3C12CCNS(=O)(=O)c1ccc(Br)cc1 (stereo not drawn) [Cpd 13d, 4-Bromo-N-[2-(6-bromo-8-fluoro-4-methylidene-2,3,4,4a,9,9a-hexahydro-1H-carbazol-4a-yl)ethyl]benzene-1-sulfonamide] | 22 µg/mL (≈ 40.4 µM) |
| C=C1CCCC2Nc3c(F)cc(Br)cc3C12CCNS(=O)(=O)c1ccc(I)cc1 (stereo not drawn) [Cpd 13e, N-[2-(6-bromo-8-fluoro-4-methylidene-2,3,4,4a,9,9a-hexahydro-1H-carbazol-4a-yl)ethyl]-4-iodobenzene-1-sulfonamide] | 19.6 µg/mL (≈ 33.1 µM) |
| C=C1CCCC2Nc3c(F)cc(Br)cc3C12CCNS(=O)(=O)c1ccc(Cl)c(Cl)c1 (stereo not drawn) [Cpd 13f, N-[2-(6-bromo-8-fluoro-4-methylidene-2,3,4,4a,9,9a-hexahydro-1H-carbazol-4a-yl)ethyl]-3,4-dichlorobenzene-1-sulfonamide] | 31 µg/mL (≈ 58 µM) |
| C=C1CCCC2Nc3c(F)cc(Br)cc3C12CCNS(=O)(=O)c1ccc(NC(C)=O)cc1 (stereo not drawn) [Cpd 13g, N-(4-{[2-(6-bromo-8-fluoro-4-methylidene-2,3,4,4a,9,9a-hexahydro-1H-carbazol-4a-yl)ethyl]sulfamoyl}phenyl)acetamide] | 32 µg/mL (≈ 61.3 µM) |
| C=C1CCCC2Nc3c(F)cc(Br)cc3C12CCNS(=O)(=O)c1ccc(C#N)cc1 (stereo not drawn) [Cpd 13h, N-[2-(6-bromo-8-fluoro-4-methylidene-2,3,4,4a,9,9a-hexahydro-1H-carbazol-4a-yl)ethyl]-4-cyanobenzene-1-sulfonamide] | 17 µg/mL (≈ 34.7 µM) |
| C=C1CCCC2Nc3c(F)cc(Br)cc3C12CCNS(=O)(=O)c1ccc(C(F)(F)F)cc1 (stereo not drawn) [Cpd 13i, N-[2-(6-bromo-8-fluoro-4-methylidene-2,3,4,4a,9,9a-hexahydro-1H-carbazol-4a-yl)ethyl]-4-(trifluoromethyl)benzene-1-sulfonamide] | 8.7 µg/mL (≈ 16.3 µM) |
| C=C1CCCC2Nc3c(F)cc(Br)cc3C12CCNS(=O)(=O)c1ccc(Br)c(Br)c1 (stereo not drawn) [Cpd 13j, 3,4-Dibromo-N-[2-(6-bromo-8-fluoro-4-methylidene-2,3,4,4a,9,9a-hexahydro-1H-carbazol-4a-yl)ethyl]benzene-1-sulfonamide] | 20 µg/mL (≈ 32.1 µM) |
| C=C1CCCC2Nc3c(F)cc(Br)cc3C12CCNS(=O)(=O)c1ccc(Br)c(F)c1 (stereo not drawn) [Cpd 13k, 4-Bromo-N-[2-(6-bromo-8-fluoro-4-methylidene-2,3,4,4a,9,9a-hexahydro-1H-carbazol-4a-yl)ethyl]-3-fluorobenzene-1-sulfonamide] | 17.5 µg/mL (≈ 31.1 µM) |
| C=C1CCCC2Nc3c(F)cc(Br)cc3C12CCNS(=O)(=O)c1ccc(Br)cc1C(F)(F)F (stereo not drawn) [Cpd 13l, 4-Bromo-N-[2-(6-bromo-8-fluoro-4-methylidene-2,3,4,4a,9,9a-hexahydro-1H-carbazol-4a-yl)ethyl]-2-(trifluoromethyl)benzene-1-sulfonamide] | 21 µg/mL (≈ 34.3 µM) |
| C=C1CCCC2Nc3c(F)cc(Br)cc3C12CCNS(=O)(=O)c1ccc(Br)c(C(F)(F)F)c1 (stereo not drawn) [Cpd 13m, 4-Bromo-N-[2-(6-bromo-8-fluoro-4-methylidene-2,3,4,4a,9,9a-hexahydro-1H-carbazol-4a-yl)ethyl]-3-(trifluoromethyl)benzene-1-sulfonamide] | 8.3 µg/mL (≈ 13.6 µM) |
| C=C1CCCC2Nc3c(F)cc(Br)cc3C12CCNS(=O)(=O)c1ccc(Br)cc1C (stereo not drawn) [Cpd 13n, 4-bromo-N-[2-(6-bromo-8-fluoro-4-methylidene-2,3,4,4a,9,9a-hexahydro-1H-carbazol-4a-yl)ethyl]-2-methylbenzene-1-sulfonamide] | 13.5 µg/mL (≈ 24.2 µM) |
| C=C1CCCC2Nc3c(F)cc(Br)cc3C12CCNS(=O)(=O)c1ccc(Br)c(C)c1 (stereo not drawn) [Cpd 13o, 4-bromo-N-[2-(6-bromo-8-fluoro-4-methylidene-2,3,4,4a,9,9a-hexahydro-1H-carbazol-4a-yl)ethyl]-3-methylbenzene-1-sulfonamide] | 12.5 µg/mL (≈ 22.4 µM) |
| C=C1CCCC2Nc3c(F)cc(Br)cc3C12CCNS(=O)(=O)c1cc(Br)c(Br)s1 (stereo not drawn) [Cpd 13p, 4,5-dibromo-N-[2-(6-bromo-8-fluoro-4-methylidene-2,3,4,4a,9,9a-hexahydro-1H-carbazol-4a-yl)ethyl]thiophene-2-sulfonamide] | 14.6 µg/mL (≈ 23.2 µM) |
| C=C1CCCC2Nc3c(F)cc(Br)cc3C12CCNS(=O)(=O)c1cncc(Br)c1 (stereo not drawn) [Cpd 13q, 5-bromo-N-[2-(6-bromo-8-fluoro-4-methylidene-2,3,4,4a,9,9a-hexahydro-1H-carbazol-4a-yl)ethyl]pyridine-3-sulfonamide] | 11.2 µg/mL (≈ 20.5 µM) |
| C=C1CCCC2Nc3c(F)cc(Br)cc3C12CCNS(=O)(=O)c1ccc(Cl)nc1 (stereo not drawn) [Cpd 13r, N-[2-(6-bromo-8-fluoro-4-methylidene-2,3,4,4a,9,9a-hexahydro-1H-carbazol-4a-yl)ethyl]-6-chloropyridine-3-sulfonamide] | 16.7 µg/mL (≈ 33.3 µM) |
| C=C1CCCC2Nc3c(F)cc(Br)cc3C12CCNS(=O)(=O)c1cn(C)cn1 (stereo not drawn) [Cpd 13s, N-[2-(6-bromo-8-fluoro-4-methylidene-2,3,4,4a,9,9a-hexahydro-1H-carbazol-4a-yl)ethyl]-1-methyl-1H-imidazole-4-sulfonamide] | 23 µg/mL (≈ 49 µM) |
| C=C1CCCC2Nc3c(F)cc(Br)cc3C12CCNS(=O)(=O)c1cc2ccccc2o1 (stereo not drawn) [Cpd 13t, N-[2-(6-bromo-8-fluoro-4-methylidene-2,3,4,4a,9,9a-hexahydro-1H-carbazol-4a-yl)ethyl]-1-benzofuran-2-sulfonamide] | 12.3 µg/mL (≈ 24.3 µM) |

system: MRSA ATCC BAA-44; experiment: MIC, CLSI broth microdilution; assay type: cell-based, S. aureus; details: Staphylococcus aureus; MRSA ATCC BAA-44, compound alone; read-out: MIC

| MIC | Structure (SMILES) |
| --- | --- |
| 128 µg/mL (≈ 282 µM) | Cc1nnc(SCC2=C(C(=O)O)N3C(=O)[C@@H](NC(=O)Cn4cnnn4)[C@H]3SC2)s1 [cefazolin] |
| 256 µg/mL (≈ 737 µM) | CC1=C(C(=O)O)N2C(=O)[C@@H](NC(=O)[C@H](N)c3ccccc3)[C@H]2SC1 [cephalexin] |
| 0.5 µg/mL (≈ 1.67 µM) | C[C@@H](O)[C@H]1C(=O)N2C(C(=O)O)=C(SCCN=CN)C[C@H]12 [imipenem] |
